Source: patent publication US20110218103A1, “Fluoroalkyl-substituted 2-amidobenzimidazoles” (BAYER CROPSCIENCE AG, priority 2010, published 2011)

Experiments:
[1] = tested on: Hordeum vulgare (HORVS); test: Drought stress test on crop plants, spray application in greenhouse, visual damage rating; assay type: in vivo; details: 25 g/ha, mean of three results
Method: Seeds of monocotyledonous and dicotyledonous crop plants were placed in sandy loam in wood-fiber pots, covered with soil and cultivated in a greenhouse under good growth conditions. The test plants were treated at the early leaf stage (BBCH10-BBCH13). To ensure uniform water supply before commencement of stress, the potted plants were supplied with the maximum amount of water immediately beforehand by dam irrigation and, after application, transferred in plastic inserts in order to prevent subsequent, excessively rapid drying. The inventive compounds, formulated in the form of wettable powders (WP), wettable granules (WG), suspension concentrates (SC) or emulsion concentrates (EC), were sprayed onto the green parts of the plants as an aqueous suspension at an equivalent water application rate of 600 l/ha with addition of 0.2% wetting agent (agrotin). Substance application was followed immediately by stress treatment of the plants (cold or drought stress). For cold stress treatment, the plants were kept under the following controlled conditions: Drought stress was induced by gradual drying out under the following conditions: “day”: 14 hours with illumination at 26° C. “night”: 10 hours without illumination at 18° C. The duration of the respective stress phases was guided mainly by the state of the untreated, stressed control plants and thus varies from crop to crop. It was ended (by re-irrigating or transfer to a greenhouse with good growth conditions) as soon as irreversible damage is observed on the untreated, stressed control plants. In the case of dicotyledonous crops, for example oilseed rape and soya, the duration of the drought stress phase was between 3 and 5 days, in the case of monocotyledonous crops, for example wheat, barley or corn, between 6 and 10 days. The duration of the cold stress phase varied between 12 and 14 days. The end of the stress phase was followed by an approx. 5-7-day recovery phase, during which the plants were once again kept under good growth conditions in a greenhouse. In order to rule out any influence of the effects observed by any fungicidal action of the test compounds, it was additionally ensured that the tests proceed without fungal infection and without infection pressure. After the recovery phase had ended, the intensities of damage were rated visually compared to untreated, unstressed controls of the same age (in the case of drought stress) or the same growth stage (in the case of cold stress). The intensity of damage was first assessed as a percentage (100%=plants have died, 0%=like control plants). These values were then used to calculate the efficacy of the test compounds (=percentage reduction in the intensity of damage as a result of substance application) by the following formula: [formula] EF: efficacy (%) DVus: damage value of the untreated, stressed control DVts: damage value of the plants treated with test compound The tables below list mean values in each case from three results of the same test. Effects of selected compounds of the formula (I) under drought stress: HORVS=Hordeum vulgare

[2] = tested on: Triticum aestivum (TRZAS); test: as above; assay type: in vivo; details: mean of three results
Method: Seeds of monocotyledonous and dicotyledonous crop plants were placed in sandy loam in wood-fiber pots, covered with soil and cultivated in a greenhouse under good growth conditions. The test plants were treated at the early leaf stage (BBCH10-BBCH13). To ensure uniform water supply before commencement of stress, the potted plants were supplied with the maximum amount of water immediately beforehand by dam irrigation and, after application, transferred in plastic inserts in order to prevent subsequent, excessively rapid drying. The inventive compounds, formulated in the form of wettable powders (WP), wettable granules (WG), suspension concentrates (SC) or emulsion concentrates (EC), were sprayed onto the green parts of the plants as an aqueous suspension at an equivalent water application rate of 600 l/ha with addition of 0.2% wetting agent (agrotin). Substance application was followed immediately by stress treatment of the plants (cold or drought stress). For cold stress treatment, the plants were kept under the following controlled conditions: Drought stress was induced by gradual drying out under the following conditions: “day”: 14 hours with illumination at 26° C. “night”: 10 hours without illumination at 18° C. The duration of the respective stress phases was guided mainly by the state of the untreated, stressed control plants and thus varies from crop to crop. It was ended (by re-irrigating or transfer to a greenhouse with good growth conditions) as soon as irreversible damage is observed on the untreated, stressed control plants. In the case of dicotyledonous crops, for example oilseed rape and soya, the duration of the drought stress phase was between 3 and 5 days, in the case of monocotyledonous crops, for example wheat, barley or corn, between 6 and 10 days. The duration of the cold stress phase varied between 12 and 14 days. The end of the stress phase was followed by an approx. 5-7-day recovery phase, during which the plants were once again kept under good growth conditions in a greenhouse. In order to rule out any influence of the effects observed by any fungicidal action of the test compounds, it was additionally ensured that the tests proceed without fungal infection and without infection pressure. After the recovery phase had ended, the intensities of damage were rated visually compared to untreated, unstressed controls of the same age (in the case of drought stress) or the same growth stage (in the case of cold stress). The intensity of damage was first assessed as a percentage (100%=plants have died, 0%=like control plants). These values were then used to calculate the efficacy of the test compounds (=percentage reduction in the intensity of damage as a result of substance application) by the following formula: [formula] EF: efficacy (%) DVus: damage value of the untreated, stressed control DVts: damage value of the plants treated with test compound The tables below list mean values in each case from three results of the same test. Effects of selected compounds of the formula (I) under drought stress: TRZAS=Triticum aestivum

Row | SMILES | EF (HORVS), efficacy = percentage reduction in the intensity of damage [1] [%] | EF (TRZAS), efficacy = percentage reduction in the intensity of damage ([2]; 25 g/ha) [%] | EF (TRZAS), efficacy = percentage reduction in the intensity of damage ([2]; 250 g/ha) [%]
1 | NC(=O)c1cccc2[nH]c(C(F)(F)C(F)(F)F)nc12 [1-2, 2-(pentafluoroethyl)-1H-benzimidazole-4-carboxamide] | >5 | >5 | 
2 | NC(=O)c1cccc2[nH]c(C(F)(F)C(F)(F)C(F)(F)F)nc12 [1-17] | >5 |  | >5
